Consider four molecules from patent US20060058358A1, “Pharmaceutical compositions for the treatment of hyper-proliferative disorders” (priority 2004, published 2006).

A short description of series [1]: Comparative oral bioavailability in the rat (Example 19). It is filed as in vivo, male Wistar rats. The following applies: male, Wistar, plasma, 5 mg/kg, oral gavage; for bioavailability: relative to iv bolus 2 mg/kg. As for the experimental part: A single dose of the compounds of Examples 1, 2, 3, 4, and 5 was administered to each of three fasted male Wistar rats (220-250 g; 6-8 weeks old) orally. Compounds of Examples 1-4 were administered by oral gavage in the formulation described in Table 1. The solid dispersion of Example 5 (1.25 mg drug substance in 5 mg PVP-25) was administered in size 9 capsules. One capsule was administered per rat. Approximately 0.4 mL of whole blood was collected via an indwelling jugular catheter at: 0.25, 0.5, 1, 2, 4, 7, 24, and 48 h post-dose. The blood samples were centrifuged (approx. 5 min.) in order to obtain plasma which was then transferred to the appropriately labeled vials and stored frozen (−20° C.) until analysis for parent drug.
Plasma samples were analyzed via LC/MS/MS for parent drug concentrations and pharmacokinetic parameters were calculated using Watson LIMS.
The dose of 5 mg/kg of the pharmaceutical composition of Example 5 means 5 mg of drug substance (compound of Example 1) per kg of body weight. The relative bioavailabilities in the rat are calculated from the data of an intravenous bolus dose of 2 mg/kg in the same strain of rats, using a solution of the active in a Cremophor RH40:ethanol:water (12.5:12.5:75) vehicle. The plasma exposure in the exposure arm of the suspension in 0.5% tylose solution (9.9% F) reflects a crystalline, micronized drug substance with the following characteristics: 208° C. (onset), 211° C. (peak), ΔH=91.4 J/g.

The subject of series [2] is PDGFR. Briefly: Inhibition of PDGFR kinase. In kind it is biochemical. Particulars: statement in words, no data.
Series [3] concerns p38. Briefly: Inhibition of p38 kinase. It is filed as biochemical. The following applies: statement in words, no data.
Series [4] deals with VEGFR-2 (Homo sapiens, UniProt P35968). Kind of series: Inhibition of VEGFR-2 kinase. It is filed as biochemical. Particulars: statement in words, no data.
Sequence of VEGFR-2 (P35968 20-1356, species assumed): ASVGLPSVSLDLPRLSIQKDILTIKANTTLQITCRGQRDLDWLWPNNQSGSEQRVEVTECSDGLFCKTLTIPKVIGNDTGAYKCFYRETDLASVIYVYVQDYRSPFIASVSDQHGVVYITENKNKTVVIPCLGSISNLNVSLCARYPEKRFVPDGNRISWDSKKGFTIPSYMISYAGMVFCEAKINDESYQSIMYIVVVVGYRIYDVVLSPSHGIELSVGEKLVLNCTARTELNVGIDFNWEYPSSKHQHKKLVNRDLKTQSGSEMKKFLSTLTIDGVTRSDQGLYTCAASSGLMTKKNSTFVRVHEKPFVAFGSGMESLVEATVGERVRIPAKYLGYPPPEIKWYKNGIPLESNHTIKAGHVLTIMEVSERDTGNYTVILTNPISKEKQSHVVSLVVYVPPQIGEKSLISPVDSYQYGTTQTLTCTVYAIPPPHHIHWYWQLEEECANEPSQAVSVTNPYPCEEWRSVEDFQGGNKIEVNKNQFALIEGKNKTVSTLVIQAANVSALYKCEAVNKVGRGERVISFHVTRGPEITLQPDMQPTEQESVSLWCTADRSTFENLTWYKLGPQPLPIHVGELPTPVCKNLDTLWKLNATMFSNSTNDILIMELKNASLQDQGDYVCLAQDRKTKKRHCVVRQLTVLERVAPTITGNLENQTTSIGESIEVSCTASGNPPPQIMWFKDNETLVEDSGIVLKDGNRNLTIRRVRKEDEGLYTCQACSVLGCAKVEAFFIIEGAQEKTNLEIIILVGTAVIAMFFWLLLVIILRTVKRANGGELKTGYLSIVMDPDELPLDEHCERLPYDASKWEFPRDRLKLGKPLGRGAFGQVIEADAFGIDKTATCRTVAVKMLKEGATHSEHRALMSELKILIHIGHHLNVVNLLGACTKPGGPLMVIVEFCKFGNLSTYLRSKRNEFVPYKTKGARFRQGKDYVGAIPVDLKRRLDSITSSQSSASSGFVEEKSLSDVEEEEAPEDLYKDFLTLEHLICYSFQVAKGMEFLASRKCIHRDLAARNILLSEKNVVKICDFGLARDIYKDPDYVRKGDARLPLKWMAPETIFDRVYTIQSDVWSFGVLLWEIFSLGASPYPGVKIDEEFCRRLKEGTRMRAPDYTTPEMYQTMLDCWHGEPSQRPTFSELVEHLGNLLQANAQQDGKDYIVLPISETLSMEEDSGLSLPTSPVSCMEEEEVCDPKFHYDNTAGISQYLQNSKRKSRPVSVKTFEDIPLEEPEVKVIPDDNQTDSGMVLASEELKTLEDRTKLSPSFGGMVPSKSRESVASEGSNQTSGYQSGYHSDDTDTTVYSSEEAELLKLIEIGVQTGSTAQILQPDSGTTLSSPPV
Series [5] has as its system raf. Kind of series: Inhibition of raf kinase. It is filed as biochemical. Particulars: statement in words, no data.
Series [6] in a line: Solubility of the active in the dissolution medium. It is filed as physicochemical. Particulars: acetate buffer pH 4.5 USP + 0.1% sodium lauryl sulfate, 37°C. The procedure: Drug dissolution of the new solid dispersion formulations of Example 6 and 7 was studied using the paddle apparatus “Apparatus 2” of the USP 28-NF 23 (The United States Pharmacopoeia USP 28 2005) at a temperature of 37±0.5° C. and a paddle speed of 75 rpm. 900 mL of acetate buffer pH 4.5 USP with the addition of 0.1% (m/V) sodium lauryl sulfate as surfactant was used as dissolution medium. An amount of solid dispersion equivalent to 50 mg of the compound of Formula I as base was inserted in each vessel. During the dissolution test samples were drawn through a filter and the dissolved amount of drug substances was determined by UV spectrometry. The determined amount of active was calculated as % (m/m) of total dose (50mg).
Due to the low solubility of the active only about […] of the 50 mg dose are dissolved. The solid dispersions, however, show fast and almost complete dissolution of the active. […] The solid new pharmaceutical compositions of Example 6 and 7, which contain the active in substantially amorphous form, show clear supersaturation compared to the physical mixture of the active and PVP, and no significant recrystallisation is observed for at least 1 hour. […]

Setting [7] is: po, 0.5% NaCMC and 0.5% Tween 80 in water.
The mark [8] stands for this setting: po, vehicle 0.5% NaCMC and 0.5% Tween 80 in water.

By bioavailability is commonly meant dose-corrected exposure relative to a reference, in per cent. One may read the AUC(0-inf) as total exposure, with the tail of the curve extrapolated. The low end stands for less exposure, the high end for more exposure. For the molecule `CNC(=O)c1cc(Oc2ccc(NC(=O)Nc3ccc(Cl)c(C(F)(F)F)c3)c(F)c2)ccn1` [Example 1, 4{4-[3-(4-chloro-3-trifluoromethylphenyl)-ureido]-3-fluorophenoxy}-pyridine-2-carboxylic acid methylamide], the bioavailability in series [1] (oral, 0.5% tylose in water) was 9.9%; in series [1] (setting [7]), 13%; in series [1] (po, 0.5% tylose in water), 10%. The AUC(0-inf) was determined as 21800 ng·h/mL in series [1] (setting [8]) and 17000 ng·h/mL in series [1] (po, vehicle 0.5% tylose in water). Besides, in series [2], the “inhibition of PDGFR kinase” value is recorded as “potent inhibitor”. Besides, the “inhibition of p38 kinase” value in series [3] is on record as “potent inhibitor”. Besides, in series [4], the “inhibition of VEGFR-2 kinase” value is reported as “potent inhibitor”. Moreover, in series [5], the “inhibition of raf kinase” value is on record as “potent inhibitor”. Also, the “solubility of the active in this medium” value in series [6] came out at 2.3 mg/900 mL.
In series [1] (setting [7]), `CNC(=O)c1cc(Oc2ccc(NC(=O)Nc3ccc(Cl)c(C(F)(F)F)c3)c(F)c2)ccn1.Cl` [Example 2, 4{4-[3-(4-chloro-3-trifluoromethylphenyl)-ureido]-3-fluorophenoxy}-pyridine-2-carboxylic acid methylamide hydrochloride] gave a bioavailability of 7%. The molecule also registered an AUC(0-inf) in series [1] (setting [8]) of 12100 ng·h/mL.
The like results for `CNC(=O)c1cc(Oc2ccc(NC(=O)Nc3ccc(Cl)c(C(F)(F)F)c3)c(F)c2)ccn1.CS(=O)(=O)O` [Example 3, 4{4-[3-(4-chloro-3-trifluoromethylphenyl)-ureido]-3-fluorophenoxy}-pyridine-2-carboxylic acid methylamide mesylate] were, in that order, 10% and 16800 ng·h/mL.
For `CNC(=O)c1cc(Oc2ccc(NC(=O)Nc3ccc(Cl)c(C(F)(F)F)c3)c(F)c2)ccn1.O=S(=O)(O)c1ccccc1` [Example 4, 4{4-[3-(4-chloro-3-trifluoromethylphenyl)-ureido]-3-fluorophenoxy}-pyridine-2-carboxylic acid methylamide phenylsulfonate] the same measures were 10% and 15800 ng·h/mL.
